In patent publication US20220317132A1, “USE OF ENDOTHELIN RECEPTOR INHIBITOR FOR INHIBITING EXOSOME SECRETION OR INHIBITING PD-L1 EXPRESSION” (KYUNGPOOK NATIONAL UNIVERSITY INDUSTRY-ACADEMIC COOPERATION …, priority 2019, published 2022):

Test system: MDA-MB231 cells
Assay: Cytotoxic effect (MTT analysis)
Conditions: 24 hours, sulfisoxazole 100 μM, ambrisentan 1, 10, 100 μM, macitentan 100, 1000 nM, bosentan 10, 50 μM, FIG. 1
Procedure: MCF10A cells were cultured in Mammary epithelial cell growth medium (MEGM, Lonza) added with 5% fetal bovine serum, 1% antibiotics, 52 μg/ml bovine pituitary extract, 0.5 μg/ml hydrocortisone, 10 ng/ml EGF, and 5 μg/ml insulin. MDA-MB231 and MCF7 cells were cultured in Dulbecco's modified Eagle's medium (DMEM, Hyclone) added with 10% fetal bovine serum and 1% antibiotics.
MDA-MB231 cells were seeded at 1×10^5/well in a 24-well plate, and then cultured for 24 hours to allow time for cell stabilization. After culturing for 24 hours, the cells were treated with 100 μM of sulfisoxazole, 1, 10, and 100 μM of ambrisentan, 100 and 1000 nM of macitentan, and 10 and 50 μM of bosentan and cultured for 24 hours. Then, after treatment with MTT tetrazolium reagent, the cells were cultured for 4 hours. After 4 hours, reduced MTT formazan (3-(4,5-dimethylthiazol-2-yl)-2,5 diphenyl-tetrazolium bromide) was measured at 595 nm absorbance to confirm cell proliferation effects.

Row | SMILES | cytotoxicity (MTT, absorbance 595 nm)
1 | COc1ccccc1Oc1c(NS(=O)(=O)c2ccc(C(C)(C)C)cc2)nc(-c2ncccn2)nc1OCCO [bosentan] | no cytotoxicity
2 | Cc1noc(NS(=O)(=O)c2ccc(N)cc2)c1C [sulfisoxazole] | no cytotoxicity
